One compound from patent US9445987B2, “Ceramide production enhancer and moisturizer” (Kao Corporation, priority 2009, dated 2016) can be followed below.

The assay has as its system Normal human epidermal keratinocytes (NHEK(F)). The assay is described as follows: Verification of ceramide production enhancing effect (Test Example 2 and Reference Example). The assay is classed as cell-based. On the procedure:
Normal human epidermal keratinocytes (trade name: NHEK(F), manufactured by Kurabo Industries, Ltd.) were cultured under the conditions of 37° C. and 5% CO2, in a culture fluid (trade name: EpiLife-KG2, manufactured by Kurabo Industries, Ltd.) using a culture plate.
Thereafter, the culture fluid was exchanged with EpiLife-KG2 from which growth factors such as epidermal growth factor had been eliminated, and a solution in which concentration of toosendanin was adjusted to 1 mM (574 ppm), or a control solution (50% ethanol) was added to the culture fluid in an amount of 0.01%.
The cells were cultured for 3 days, and then the respective cells were collected from each well.
An organic phase obtained by extracting lipids from the collected cells by the Blight and Dyer method, was transferred into a glass tube, and was dried to solid in nitrogen stream. Subsequently, the dried product was redissolved in chloroform and methanol, and this was used as a lipid sample.
Further, 0.1N NaOH and a 1% aqueous SDS solution were added to the cells from which lipids had been extracted, and the mixture was heated at 60° C. for 2 hours to thereby solubilize proteins. The mixture was cooled to room temperature, and then 2N HCl was added for neutralization. The amount of proteins was quantified by the BCA method. […]

Molecules are shown by their SMILES.

Consider `CC(=O)O[C@@H]1C[C@H](O)[C@@]23CO[C@@H](O)[C@]1(C)[C@@H]2C[C@@H](O)[C@]1(C)[C@@H]3C(=O)[C@H](OC(C)=O)[C@@]2(C)[C@H](c3ccoc3)C[C@H]3O[C@]321` [Toosendanin, toosendanin], for which the “Amount of ceramide production (Amount of ceramide production of control solution-added group = 1)” value (concentration for verification 57.4 ppb, cells cultured 3 days, TLC detection, control 50% ethanol) was determined as 1.22. Besides, the “amount of ceramide production as compared to the control system (in words)” value (toosendanin-added system, 57.4 ppb, Table 2) was “an increase in the amount of ceramide production was recognized”.
